# Results published in BigSolDB 2.1.
structure (smiles),measurement,setting,value
CC1(C)[C@H](C(=O)O)[C@@H]1/C=C(\Cl)C(F)(F)F (racemic),solubility (mole fraction),"in cyclohexane, 283.15 K",0.00261
same,solubility (mole fraction),"in cyclohexane, 288.15 K",0.00304
same,solubility (mole fraction),"in cyclohexane, 293.15 K",0.00447
same,solubility (mole fraction),"in cyclohexane, 298.15 K",0.00592
same,solubility (mole fraction),"in cyclohexane, 303.15 K",0.00821
same,solubility (mole fraction),"in cyclohexane, 308.15 K",0.0119
same,solubility (mole fraction),"in cyclohexane, 313.15 K",0.0175
same,solubility (mole fraction),"in cyclohexane, 318.15 K",0.0258
same,solubility (mole fraction),"in cyclohexane, 323.15 K",0.0384
same,solubility (mole fraction),"in ethanol, 283.15 K",0.077
same,solubility (mole fraction),"in ethanol, 288.15 K",0.0817
same,solubility (mole fraction),"in ethanol, 293.15 K",0.0944
same,solubility (mole fraction),"in ethanol, 298.15 K",0.106
same,solubility (mole fraction),"in ethanol, 303.15 K",0.121
same,solubility (mole fraction),"in ethanol, 308.15 K",0.143
same,solubility (mole fraction),"in ethanol, 313.15 K",0.168
same,solubility (mole fraction),"in ethanol, 318.15 K",0.195
same,solubility (mole fraction),"in ethanol, 323.15 K",0.228
same,solubility (mole fraction),"in ethyl acetate, 283.15 K",0.0818
same,solubility (mole fraction),"in ethyl acetate, 288.15 K",0.0938
same,solubility (mole fraction),"in ethyl acetate, 293.15 K",0.109
same,solubility (mole fraction),"in ethyl acetate, 298.15 K",0.123
same,solubility (mole fraction),"in ethyl acetate, 303.15 K",0.141
same,solubility (mole fraction),"in ethyl acetate, 308.15 K",0.165
same,solubility (mole fraction),"in ethyl acetate, 313.15 K",0.186
same,solubility (mole fraction),"in ethyl acetate, 318.15 K",0.217
same,solubility (mole fraction),"in ethyl acetate, 323.15 K",0.243
same,solubility (mole fraction),"in isobutanol, 283.15 K",0.0701
same,solubility (mole fraction),"in isobutanol, 288.15 K",0.0843
same,solubility (mole fraction),"in isobutanol, 293.15 K",0.099
same,solubility (mole fraction),"in isobutanol, 298.15 K",0.116
same,solubility (mole fraction),"in isobutanol, 303.15 K",0.13
same,solubility (mole fraction),"in isobutanol, 308.15 K",0.147
same,solubility (mole fraction),"in isobutanol, 313.15 K",0.168
same,solubility (mole fraction),"in isobutanol, 318.15 K",0.2
same,solubility (mole fraction),"in isobutanol, 323.15 K",0.233
same,solubility (mole fraction),"in methanol, 283.15 K",0.058
same,solubility (mole fraction),"in methanol, 288.15 K",0.0664
same,solubility (mole fraction),"in methanol, 293.15 K",0.0722
same,solubility (mole fraction),"in methanol, 298.15 K",0.0813
same,solubility (mole fraction),"in methanol, 303.15 K",0.098
same,solubility (mole fraction),"in methanol, 308.15 K",0.119
same,solubility (mole fraction),"in methanol, 313.15 K",0.139
same,solubility (mole fraction),"in methanol, 318.15 K",0.166
same,solubility (mole fraction),"in methanol, 323.15 K",0.191
same,solubility (mole fraction),"in methyl acetate, 283.15 K",0.0727
same,solubility (mole fraction),"in methyl acetate, 288.15 K",0.0848
same,solubility (mole fraction),"in methyl acetate, 293.15 K",0.0976
same,solubility (mole fraction),"in methyl acetate, 298.15 K",0.114
same,solubility (mole fraction),"in methyl acetate, 303.15 K",0.129
same,solubility (mole fraction),"in methyl acetate, 308.15 K",0.151
same,solubility (mole fraction),"in methyl acetate, 313.15 K",0.171
same,solubility (mole fraction),"in methyl acetate, 318.15 K",0.2
same,solubility (mole fraction),"in methyl acetate, 323.15 K",0.226
same,solubility (mole fraction),"in n-butanol, 283.15 K",0.0748
same,solubility (mole fraction),"in n-butanol, 288.15 K",0.0848
same,solubility (mole fraction),"in n-butanol, 293.15 K",0.0964
same,solubility (mole fraction),"in n-butanol, 298.15 K",0.11
same,solubility (mole fraction),"in n-butanol, 303.15 K",0.129
same,solubility (mole fraction),"in n-butanol, 308.15 K",0.149
same,solubility (mole fraction),"in n-butanol, 313.15 K",0.167
same,solubility (mole fraction),"in n-butanol, 318.15 K",0.203
same,solubility (mole fraction),"in n-butanol, 323.15 K",0.239
same,solubility (mole fraction),"in n-butyl acetate, 283.15 K",0.089
same,solubility (mole fraction),"in n-butyl acetate, 288.15 K",0.102
same,solubility (mole fraction),"in n-butyl acetate, 293.15 K",0.119
same,solubility (mole fraction),"in n-butyl acetate, 298.15 K",0.135
same,solubility (mole fraction),"in n-butyl acetate, 303.15 K",0.153
same,solubility (mole fraction),"in n-butyl acetate, 308.15 K",0.175
same,solubility (mole fraction),"in n-butyl acetate, 313.15 K",0.195
same,solubility (mole fraction),"in n-butyl acetate, 318.15 K",0.223
same,solubility (mole fraction),"in n-butyl acetate, 323.15 K",0.247
same,solubility (mole fraction),"in n-propanol, 283.15 K",0.0753
same,solubility (mole fraction),"in n-propanol, 288.15 K",0.0829
same,solubility (mole fraction),"in n-propanol, 293.15 K",0.0944
same,solubility (mole fraction),"in n-propanol, 298.15 K",0.109
same,solubility (mole fraction),"in n-propanol, 303.15 K",0.13
same,solubility (mole fraction),"in n-propanol, 308.15 K",0.142
same,solubility (mole fraction),"in n-propanol, 313.15 K",0.173
same,solubility (mole fraction),"in n-propanol, 318.15 K",0.213
same,solubility (mole fraction),"in n-propanol, 323.15 K",0.252
same,solubility (mole fraction),"in sec-butanol, 283.15 K",0.0987
same,solubility (mole fraction),"in sec-butanol, 288.15 K",0.111
same,solubility (mole fraction),"in sec-butanol, 293.15 K",0.138
same,solubility (mole fraction),"in sec-butanol, 298.15 K",0.161
same,solubility (mole fraction),"in sec-butanol, 303.15 K",0.179
same,solubility (mole fraction),"in sec-butanol, 308.15 K",0.204
same,solubility (mole fraction),"in sec-butanol, 313.15 K",0.231
same,solubility (mole fraction),"in sec-butanol, 318.15 K",0.265
same,solubility (mole fraction),"in sec-butanol, 323.15 K",0.285
same,solubility (mole fraction),"in tert-butanol, 283.15 K",0.13
same,solubility (mole fraction),"in tert-butanol, 288.15 K",0.144
same,solubility (mole fraction),"in tert-butanol, 293.15 K",0.169
same,solubility (mole fraction),"in tert-butanol, 298.15 K",0.197
same,solubility (mole fraction),"in tert-butanol, 303.15 K",0.224
same,solubility (mole fraction),"in tert-butanol, 308.15 K",0.247
same,solubility (mole fraction),"in tert-butanol, 313.15 K",0.271
same,solubility (mole fraction),"in tert-butanol, 318.15 K",0.3
same,solubility (mole fraction),"in tert-butanol, 323.15 K",0.331
